Measured values reported in article PMC4873338 (Neuron, 2016).
pEC50: −log10 of the molar value. Where two headings read alike, the source gives them in different places.

Experiments:
[1] = system: D1-like dopamine receptors in l-LNv; test: EPAC-FRET cAMP imaging of l-LNv response to dopamine; format: cell-based, Drosophila
[2] = system: dopamine receptor(s) (DA-R) in s-LNv; conditions: for Max Ampl DA ZT4 / Max Ampl DA ZT22 / pEC50: Pdf > Epac50A
[3] = system: Drosophila D1-like receptors expressed in hEK-293 cells; conditions: hEK-293 cells expressing Drosophila D1-like receptor
[4] = system: dopamine receptor(s) (DA-R) in s-LNv; conditions: 2012, cited from earlier work
[5] = system: D1-like dopamine receptors in l-LNv; conditions: via one or more D1-like dopamine receptors, ref Shang et al. 2011, Duvall and Taghert, 2012; cited from earlier work

## NCCc1ccc(O)c(O)c1 [DA, dopamine]
[1]; 3 × 10^−05 M DA, N=33 brains, 178 ROIs, P=0.574
  FRET responses to DA over the 24-hr period: did not significantly vary over the 24-hr time period tested
[1]; Pdf > Epac50A, LD 12:12, ZT4
  Max Ampl DA ZT4: 15.3 ± 1.3
[1]; Pdf > Epac50A, LD 12:12, ZT22
  Max Ampl DA ZT22: 16.0 ± 1.3
[2]; 3 × 10^−05 M DA, s-LNv, N=36 brains, 124 ROIs
  rhythm of responsiveness to DA: peak phase in synchrony with the peak phase of PDF responsiveness, just after lights-on
[2]; s-LNv, LD 12:12, ZT4
  Max Ampl DA ZT4: 15.3 ± 1.2
[2]; s-LNv, LD 12:12, ZT22
  Max Ampl DA ZT22: 14.7 ± 2.8
[2]; rala[CA], s-LNv, LD 12:12, ZT4
  Max Ampl DA ZT4: 14.0 ± 1.4
[2]; rala[CA], s-LNv, LD 12:12, ZT22
  Max Ampl DA ZT22: 13.6 ± 2.0
[2]; rala[DN], s-LNv, LD 12:12, ZT4
  Max Ampl DA ZT4: 13.6 ± 1.5
[2]; rala[DN], s-LNv, LD 12:12, ZT22
  Max Ampl DA ZT22: 14.4 ± 1.9
[2]; read-out: DA EC50 ZT4, rala[CA], s-LNv, LD 12:12, ZT4
  pEC50: 5.24
[2]; read-out: DA EC50 ZT4, rala[DN], s-LNv, LD 12:12, ZT4
  pEC50: 4.54
[2]; read-out: DA EC50 ZT22, rala[CA], s-LNv, LD 12:12, ZT22
  pEC50: 5.19
[2]; s-LNv, Suppl. Figure 2-top
  DA responsiveness after RNAi targeting of AC13E and of ACX-A: partially reduced DA responsiveness
[2]; sustained exposure to DA
  attenuation of FRET response after peak: rapidly attenuated
[2]; sustained exposure to DA, relation: within
  time to peak of FRET response: 1 to 2 min
[3]
  β-ARR2-GFP translocation: potently recruited β-ARR2-GFP translocation
[4]; s-LNv, ref Duvall and Taghert
  DA responsiveness on over-expression of AC3: no effect on DA responsiveness
[4]; small LNv, ref Shang et al. 2011, Duvall and Taghert
  cAMP increase in vivo: generates cAMP increases in vivo
[5]
  cAMP increase in vivo: generates cAMP increases in vivo
